How the values were obtained:
[1] = test system: P. falciparum male gametocytes; experiment: P. falciparum Dual Gamete Formation Assay (PfDGFA), male readout (exflagellation); assay type: cell-based, Plasmodium falciparum NF54; details: for Average inhibition male (%): average of replicates; for % inhibition male (individual replicates) R1: replicate R1; for % inhibition male (individual replicates) R3: replicate R3; for % inhibition male (individual replicates) R4: replicate R4; for Activity: hit = >50% inhibition in male or female readout in at least 3 replicates, 0 = no class assigned
In short: (§1)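 Read-outs are automated image counts of exflagellation centres (brightfield, 10 frames over 1 s) and Pfs25-positive female gametes (Cy3 fluorescence).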

[2] = test system: P. falciparum female gametocytes; experiment: P. falciparum Dual Gamete Formation Assay (PfDGFA), female readout (Pfs25-positive female gametes); assay type: cell-based, Plasmodium falciparum NF54; details: for Average inhibition female (%): average of replicates; for % inhibition female (individual replicates) R1: replicate R1; for % inhibition female (individual replicates) R3: replicate R3; for % inhibition female (individual replicates) R4: replicate R4
In short: as §1

[3] = PfDGFA at 2µM, 24h preincubation with gametocytes
[4] = number of replicates with >50% inhibition in the male readout, 2µM
[5] = number of replicates with >50% inhibition in the female readout, 2µM
[6] = PfDGFA at 2µM, 24h preincubation with gametocytes prior to induction of gametogenesis
[7] = PfDGFA at 2µM, 24h preincubation
[8] = 2µM, 24h preincubation with gametocytes prior to induction of gametogenesis
[9] = 2µM, 24h preincubation, hits selected on >50% inhibition in the male readout across replicates
[10] = 2µM, 24h preincubation, hits selected on >50% inhibition in the female readout across replicates
[11] = 2µM, 24h preincubation, number of replicates with >50% inhibition in the male readout
[12] = 2µM, 24h preincubation, number of replicates with >50% inhibition in the female readout

Row | SMILES | Average inhibition male (%) [1, 3] | % inhibition male (individual replicates) R1 [1, 3] | % inhibition male (individual replicates) R3 [1, 3] | % inhibition male (individual replicates) R4 [1, 3] | HitlevelM [1, 4] | Average inhibition female (%) [2, 3] | % inhibition female (individual replicates) R1 [2, 3] | % inhibition female (individual replicates) R3 [2, 3] | % inhibition female (individual replicates) R4 [2, 3] | Average inhibition male (%) [1, 8] | % inhibition male (individual replicates) R1 [1, 8] | % inhibition male (individual replicates) R3 [1, 8] | % inhibition male (individual replicates) R4 [1, 8] | HitlevelM [1, 9] | Activity [1, 7] | Average inhibition female (%) [2, 8] | % inhibition female (individual replicates) R1 [2, 8] | % inhibition female (individual replicates) R3 [2, 8] | % inhibition female (individual replicates) R4 [2, 8] | HitlevelF [2, 10] | also measured
1 | c1ccc(Oc2ccc(Nc3ccnc(Nc4cccc(CNCCCN5CCOCC5)c4)n3)cc2)cc1 [TCMDC-138615] | 70.3% | 74.9% | 61.1% | 77.6% | 4 | 19.0% | 20.2% | 10.9% | 5.3% | – | – | – | – | – | – | – | – | – | – | – | HitlevelF [2, 5]: 0
2 | COc1cc2nc(N3CCC(CNC(=O)c4ccc(-c5ccc(C(F)(F)F)cc5)cc4)CC3)nc(N)c2cc1OC [TCMDC-138716] | 66.2% | 83.5% | 34.3% | 64.2% | 3 | 47.4% | 32.4% | 31.5% | 42.3% | – | – | – | – | – | – | – | – | – | – | – | HitlevelF [2, 5]: 1
3 | CC(=O)Nc1ccc(Nc2ncc([N+](=O)[O-])c(Nc3ccccc3C(N)=O)n2)cc1.Cl [TCMDC-138731] | – | – | – | – | – | – | – | – | – | – | – | – | – | – | – | – | – | – | – | – | % inhibition male (individual replicates) R1 [1, 6]: 16.1%; % inhibition male (individual replicates) R3 [1, 6]: -4.1%; % inhibition male (individual replicates) R4 [1, 6]: 46.2%; Average inhibition male (%) [1, 7]: 19.6%; % inhibition female (individual replicates) R1 [2, 6]: 2.0%; % inhibition female (individual replicates) R3 [2, 6]: 5.4%; % inhibition female (individual replicates) R4 [2, 6]: -11.2%; Average inhibition female (%) [2, 7]: -0.8%
4 | O=C(NCCCCN1CCC(c2ccc3c(c2OCCN2CCCC2)CCCC3)CC1)c1ccc(-c2ccc(C(F)(F)F)cc2)cc1 [TCMDC-138768] | – | – | – | – | – | – | – | – | – | 31.7% | 23.4% | -6.7% | 63.6% | 1 | 0 | 9.4% | 18.9% | -7.9% | 3.3% | 0 | –
5 | Cc1[nH]c(C)c(-c2ccc(Oc3ccc(OC(F)(F)F)cc3)cc2)c(=O)c1Br [TCMDC-138826] | – | – | – | – | – | – | – | – | – | -11.2% | -5.2% | – | -18.5% | 0 | 0 | 14.3% | 12.8% | 15.5% | 15.2% | 0 | –
6 | O=C(NCC1CCN(CCN2CCC(c3cn(CCO)c4ccccc34)CC2)CC1)c1ccc(-c2ccc(C(F)(F)F)cc2)cc1 [TCMDC-138856] | – | – | – | – | – | – | – | – | – | 42.1% | 32.1% | – | 39.5% | – | – | 23.9% | 24.2% | 27.5% | 18.4% | – | HitlevelM [1, 11]: 1; HitlevelF [2, 12]: 0
7 | CC1(C)CC(NCCCCCCCOc2ccc(OCc3ccccc3)cc2)CC(C)(C)N1.Cl [TCMDC-138958] | 66.7% | 71.0% | 36.7% | 78.9% | 3 | 23.9% | 22.5% | -1.0% | 34.0% | – | – | – | – | – | – | – | – | – | – | – | HitlevelF [2, 5]: 0
8 | CCN1CCC2(c3cccc(OC)c3)Cc3nc4ccccc4c(-c4ccccc4)c3CC2C1 (stereo not shown) [TCMDC-138968] | – | – | – | – | – | – | – | – | – | 50.6% | 28.7% | 22.4% | 66.9% | – | – | 33.9% | 34.1% | 23.7% | 21.6% | – | HitlevelM [1, 11]: 2; HitlevelF [2, 12]: 1
9 | Oc1ccc2[nH]cc(C3CCN(CCCNCc4ccc(-c5ccccc5)cc4)CC3)c2c1 [TCMDC-139047] | – | – | – | – | – | – | – | – | – | 41.4% | 26.8% | – | 40.8% | – | – | 20.7% | 11.5% | 19.3% | 14.8% | – | HitlevelM [1, 11]: 1; HitlevelF [2, 12]: 0
10 | NC(CC1CC(=O)N1CC(=O)O)C(=O)O (stereo not shown) [TCMDC-139050] | – | – | – | – | – | – | – | – | – | -4.7% | 15.3% | -15.7% | -29.8% | 0 | 0 | 6.8% | 12.5% | 4.8% | 14.4% | 0 | –
11 | COC(=O)c1ccc(-c2ccc(-c3cccnc3)cc2C)cc1 [TCMDC-139074] | – | – | – | – | – | – | – | – | – | 18.8% | 21.7% | 27.9% | 3.9% | 0 | 0 | 13.5% | 26.9% | 10.2% | 0.5% | 0 | –
12 | CN(C)CCCc1cc2c(cc1Cl)CCN2C(=O)Nc1ccc(-c2ccncc2)c2ccccc12 [TCMDC-139215] | – | – | – | – | – | – | – | – | – | 2.0% | 5.2% | 1.0% | 8.2% | 0 | 0 | 5.1% | 27.9% | -29.4% | 20.5% | 0 | –
13 | CN1CCN(c2cc3c(cc2Cl)CCN3C(=O)Nc2ccc(NC(=O)c3ccc(C(F)(F)F)cc3)cc2)CC1.Cl [TCMDC-139270] | 84.1% | 90.7% | 63.5% | 92.9% | 4 | 59.6% | 37.1% | 50.9% | 69.9% | – | – | – | – | – | – | – | – | – | – | – | HitlevelF [2, 5]: 3
